Measured values reported in patent publication US20260355168A1, “COMPOSITIONS AND METHODS FOR TREATING AND DETECTING CANCER” (CASE WESTERN RESERVE UNIVERSITY, priority 2022, published 2026).
“Also recorded” adds a separate entry of the source.

How the values were obtained:
glioma cells = assay: Glioma cell assays combined (scratch and sphere, several cell lines); type: cell-based, human; conditions: 100 μM; for Effect on glioma cells, overall: multiple assays and cell lines; for Effect on glioma cell migration: scratch assays
Experimental: FIG. 2 illustrates a schematic of a functional screening approach. Seventy-four PTPμ wedge-targeted compounds and 2 blinded DMSO samples were received from Atomwise and screened at 100 μM in scratch wound healing assays using two glioma cell lines (LN229 and U87). Selected active and control compounds were taken into secondary assays (Gli36 scratch and LN229 and Gli36 sphere formation and growth assays). Inhibitors selected as being active in primary and secondary screens were tested for effects on the survival of LN229 and Sf9 cells, and selected glioma-cell inhibitors and activators were screened for effects on Sf9-PTPμ aggregation, a highly specific test for PTPμ function.
(§1) Cells were seeded at a density of 2.7×10^4 cells per well into the internal wells of Incuyte1 Imagelock 96-well plates (Essen BioScience Inc., Ann Arbor, MI) and cultured overnight to form monolayers. Monolayers were wounded with an IncuCyte1 96-well Woundmaker Tool per the manufacturer's instructions. The outer wells were filled with PBS to buffer edge effects, and then the wounded monolayers were cultured in 100 μl of fresh media with compounds or DMSO (2×replicates at 100 μM or 1%, respectively) at 37 °C and 5% CO2. Images were captured every 4 hrs. using an Incucyte live cell imaging system equipped with the Scratch Wound Module. Scratch wound widths were calculated, per the manufacturer's instructions, at TO and at endpoint (typically T12 for LN229 and U87 cells and T8 for Gli36), which was taken as the last timepoint before wound closure. The cell migration distance was calculated from scratch widths [(T0Width−TendpointWidth)/2] and normalized to the average distance migrated by the DMSO controls. Values are presented as average percentages±standard errors of the means (s.e.m.). The majority of compounds were screened with an n of two, but the n for priority hits ranges from 2-6.
Cells were seeded at a density of 7500 cells per well into the internal wells of 96-well plates coated with 0.75% (wt/vol) PVA as previously described. Compounds were added (2×replicates per treatment) at the indicated final concentrations, and control wells were treated with matching concentrations of DMSO. The external wells of the plates were filled with PBS to buffer against edge effects, and the cells were incubated at 37 °C and 5% CO2 for 7 days. A Leica CTR6500 microscope fitted with an automated stage was used to capture brightfield images on day 1 and day 7, and sphere footprint areas were measured using Image J (v1.52a http://imagej.nih.gov/ij) as previously described. To quantify the effects of the compounds on day 1, the footprint areas of the treated wells were normalized to the average area of the matched DMSO control wells. To quantify the effects of the compounds on sphere growth, the change in the sphere footprint areas was calculated ([…]) and then normalized to the average size change of the matched DMSO samples. All values are presented as average percentages±s.e.m.

LN229 cells = assay: Helix Blue staining of LN229 spheres (cell survival); type: cell-based, human; conditions: 100 μM, 24 h, qualitative
Experimental: (§2) FIG. 17 illustrates images showing the effects of prioritized inhibitors on cell survival. LN229 cells were plated onto non-adherent surfaces and cultured in the presence of the indicated compounds (100 μM). On day 1, spheres were stained with Helix Blue to detect dying cells. Parental Sf9 cells (which lack PTPμ) plated onto tissue culture plastic were also grown in the presence of the indicated compounds and, on day 1, stained with Helix Blue. Three compounds appeared to cause a qualitative increase in staining in LN229 spheres. No compound was toxic to Sf9 cells.
(§3) LN229 cells, plated onto non-adherent surfaces as described above, and parental Sf9 cells (without PTPμ), seeded into 96-well flat bottom tissue culture plates, were treated for 24 h with the indicated compounds (100 μM). The cells and spheres were then treated with 5.5 μM Helix Blue (Biolegend, San Diego, CA) and imaged at 10× on a Leica CTR6500 fluorescence microscope.
(§4) The seven penetrant inhibitors were tested to see if they affected the survival of LN229 spheres and parental Sf9 cells (which lack PTPμ) (FIG. 17).

Gli36 cells = assay: Gli36 scratch wound healing assay; type: cell-based, human; conditions: 100 μM; for Effect on Gli36 migration (scratch wound closure): endpoint 8 h, in words
Experimental: FIGS. 4(A-D) illustrate a histogram and images showing the results of the Gli36 scratch wound assays. Selected inhibitors, activators, and control compounds identified in LN229 and/or U87 scratch wound closure assays were retested at 100 μM for effects on Gli36 migration. A. Histogram showing the normalized migration distance for each treated sample. Data is presented as average % movement±s.e.m, and compound bar codes are shown on the x-axis. The majority of compounds were screened with an n of 2-4. Representative endpoint images of samples treated with DMSO (B) and two priority inhibitors (C and D) are shown. The relative migration distances for each example are shown.
as §1
All inhibitors identified in the primary screens, a selection of U87-specific activators, and some apparently inert control compounds were rescreened in scratch wound assays using an additional glioma cell line (Gli36) (FIG. 4A).

parental Sf9 cells = assay: Helix Blue staining of parental Sf9 cells (cell survival); type: cell-based, insect; conditions: 100 μM, 24 h, cells lack PTPμ
Experimental: as §2, §3, §4

SMILES | Effect on glioma cells, overall (glioma cells) | Effect on LN229 cell survival / cell death (LN229 cells) | Effect on Gli36 cell morphology in scratch assay (Gli36 cells) | Effect on parental Sf9 cell survival (parental Sf9 cells) | Effect on glioma cell migration (glioma cells) | Effect on Gli36 migration (scratch wound closure) (Gli36 cells)
CCN(C(=O)CN1C(=O)NC(C)(CCC(C)C)C1=O)c1cccc2ccccc12 (stereo not drawn) [Compound 247677616] | highly penetrant inhibitors in glioma cell assays | caused a qualitative increase in LN229-cell death; also recorded: causing LN229 cell death | dramatic effect on Gli36 cell morphology | did not affect parental Sf9 cells | – | –
COc1cc(C)ccc1OCC(=O)Nc1nc(-c2c[nH]c(C(N)=O)c2)cs1 [Compound 247678835] | highly penetrant inhibitors; also recorded: able to inhibit glioma cells | caused a qualitative increase in LN229-cell death; also recorded: induced LN229-cell death in vitro; also recorded: affect the survival of LN229 cells | reduced the appearance of processes and cell chains at the scratch edge | did not affect parental Sf9 cells | able to inhibit glioma cell migration | strong priority inhibitor
O=C(NCc1nc(-c2ccncc2)no1)c1ccc(Cl)c(S(=O)(=O)NCc2ccccc2)c1 [Compound 247678791] | highly penetrant inhibitors; also recorded: able to inhibit glioma cells | did not affect LN229 survival | did not dramatically affect Gli36 cell morphology | – | able to inhibit glioma cell migration | moderate inhibitor
